# Results reported in PubChem BioAssay AID2060501 (Molecular Pharmacology Branch, DTP, NCI, 2025).
# pIC50: −log10 of the molar value. “And” between values parts separate entries of the source, which are not always exact repeats. Equal entries are not always repeated.
# Tested on: 282377-053-R-J1-PDC complex spheroids, viability
# Assay: Anticancer human tumor 282377-053-R-J1-PDC patient-derived colon adenocarcinoma cell line growth inhibition [GQUAD]
# Conditions: for viability, T/C: stronger effect = lower value
# Source text: DNA G-quadruplex Stabilizer Agents in Combinations in Complex Spheroids
# A high-throughput screen of multi-cell type tumor spheroids was designed to identify active combinations of DNA G-quadruplex stabilizer agents and targeted small molecules. Complex spheroids include a stromal component modeled by human endothelial cells (HUVEC) and fibroblasts modeled by human mesenchymal stem cells (MSCs). The concentration ranges selected for each drug and investigational agent were based upon clinically achievable concentrations if the clinical Cmax of the agent was known.
# Compounds. The drugs and investigational agents: pidnarulex (CX-5461; NSC782164), APTO-253 (NSC789042), BRACO-19 (NSC847499), peposertib (NSC802822), ceralasertib (NSC780249), elimusertib (NSC800525), camonsertib (NSC841442), AZD-1390 (NSC803789), olaparib (NSC753686), talazoparib (NSC767125), ART-558 (NSC835418), sotorasib (NSC818433), MRTX-1133 (NSC836407), SN-38 (NSC673596), topotecan (NSC609699), etoposide (NSC141540), doxorubicin (NSC123127), gemcitabine (NSC613327), 5-fluorouracil (NSC19893), paclitaxel (NSC125973), vemurafenib (NSC761431), panobinostat (NSC761190), R-306465 (JNJ-16241199; NSC773264), adavosertib (NSC754352), TP-3654 (NSC805149), carboplatin (NSC241240), KSQ-4279 (NSC840948), and staurosporine (NSC755774) were obtained from the National Cancer Institute (NCI) Developmental Therapeutics Program Chemical Repository (34). The FDA-approved anticancer drug set is available from the NCI Developmental Therapeutics Program. […] The stock solutions were prepared in dimethyl sulfoxide (DMSO, Sigma-Aldrich, St. Louis, MO, cat. D2650) at 800-fold the tested concentration and stored at -70 degrees C prior to their use. All drugs and investigational agents were tested over a range starting from a high concentration at or near the clinical Cmax and decreasing in half-log increments. If the clinical Cmax for an agent had not been determined, the highest concentration tested was 10 microM.
# 2.3 Cell Culture. All cells were maintained in an incubator at 37 degrees C and 5% CO2 with 95% humidity. The PDC lines were cultured according to standard operating procedures established by the NCI PDMR. All PDCs were thawed and cultured in Matrigel-coated flasks prepared with a working solution of 1X Ham's F-12 nutrient mix, without supplementation (Invitrogen, cat. 11765054), 100 U/mL penicillin-streptomycin (Invitrogen, cat. 15140122), and 2.5% Matrigel (Corning Inc., cat. 354248) for the first three passages. The 857933-349-R-J2-PDC line was cultured in 6C/Colon 1B media, which includes advanced DMEM/F-12 (Thermo Fisher Scientific, cat. 12634028), 10 mM HEPES (Thermo Fisher Scientific, cat. 15630080), 1X GlutaMAX supplement (Thermo Fisher Scientific, cat. 35050061), 0.1 mg/mL primocin (InvivoGen, cat. ant-pm-2), 10% defined fetal bovine serum, heat inactivated (HyClone Laboratories Inc., cat. SH30070.03HI), 50% L-WRN conditioned media (ATCC, cat. CRL-3276), 1.25 mM N-Acetyl-L-cysteine (Sigma-Aldrich, cat. A9165), 10 mM nicotinamide (Sigma-Aldrich, cat. N0636), 1X B-27 supplement (Thermo Fisher Scientific, cat. 17504044), 1X N-2 supplement (Thermo Fisher Scientific, cat. 17502048), 10 microM Y-27632 dihydrochloride (Tocris Bioscience, cat. 1254), and 50 ng/mL human EGF recombinant protein (Thermo Fisher Scientific, cat. PHG0311). The 485176-168-R4-J1-PDC line was cultured in Panc media, which includes all 6C/Colon 1B media components plus 100 ng/mL human FGF-10 (Thermo Fisher Scientific, cat. 100-26), 500 nM SB-431542 (Selleckchem, cat. S1067), and gastrin (Tocris, cat. 3006).
# […]
# 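Also: spheroids exposed to compounds for 7 days before readout.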
# 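For viability, T/C in this document: percent of vehicle DMSO control viability with 100% = untreated-like growth.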
smiles,measurement,setting,value
C#Cc1c(F)ccc2cc(O)cc(-c3ncc4c(N5CC6CCC(C5)N6)nc(OCC56CCCN5CC(F)C6)nc4c3F)c12 (stereo not drawn),"viability, T/C",compound 0.0316 µM,103% and 112% and 90.1%
same,"viability, T/C",compound 0.1 µM,102% and 93.9% and 80.2%
same,"viability, T/C",compound 0.316 µM,110% and 81.1% and 95.1%
same,"viability, T/C",compound 1 µM,86.2% and 90.6% and 93.1%
same,"viability, T/C",compound 3.16 µM,101% and 33.1% and 95.4%
same,"viability, T/C",compound 10 µM,82.8% and 42.6% and 77.7%
same,pIC50,curve of compound,< 5.00 and 5.62
C=CCn1c(=O)c2cnc(Nc3ccc(N4CCN(C)CC4)cc3)nc2n1-c1cccc(C(C)(C)O)n1,"viability, T/C",compound 0.0316 µM,88.3% and 90.1% and 98.2%
same,"viability, T/C",compound 0.1 µM,65.9% and 82.6% and 109%
same,"viability, T/C",compound 0.316 µM,65.6% and 85.4% and 103%
same,"viability, T/C",compound 1 µM,66.5% and 75% and 72.4%
same,"viability, T/C",compound 3.16 µM,72.8% and 29.1% and 28%
same,"viability, T/C",compound 10 µM,17.2% and 15.7% and 17.4%
same,pIC50,curve of compound,5.30 and 5.73 and 5.75
CC(C)(O)C1CCC(Nc2ccc3ncc(-c4cccc(C(F)(F)F)c4)n3n2)CC1 (stereo not drawn),"viability, T/C",compound 0.0316 µM,95.4% and 108% and 93.2%
same,"viability, T/C",compound 0.1 µM,77.4% and 81.7% and 98.5%
same,"viability, T/C",compound 0.316 µM,107% and 80.8% and 81.9%
same,"viability, T/C",compound 1 µM,96.5% and 87.1% and 71.6%
same,"viability, T/C",compound 3.16 µM,101% and 33.2% and 13.8%
same,"viability, T/C",compound 10 µM,95% and 42.3% and 22.1%
same,pIC50,curve of compound,< 5.00 and 5.62 and 5.80
CCCS(=O)(=O)Nc1ccc(F)c(C(=O)c2c[nH]c3ncc(-c4ccc(Cl)cc4)cc23)c1F,"viability, T/C",compound 0.0316 µM,117% and 88.2% and 74.2%
same,"viability, T/C",compound 0.1 µM,76.3% and 55.9% and 63.7%
same,"viability, T/C",compound 0.316 µM,90.1% and 68.8% and 55.6%
same,"viability, T/C",compound 1 µM,75.6% and 74.8% and 57.6%
same,"viability, T/C",compound 3.16 µM,29.3% and 72.3% and 66.7%
same,"viability, T/C",compound 10 µM,17.7% and 16.4% and 14.4%
same,pIC50,curve of compound,5.72 and 5.30 and 5.36
CN(C)c1ccc(Nc2c3ccc(NC(=O)CCN4CCCC4)cc3nc3cc(NC(=O)CCN4CCCC4)ccc23)cc1,"viability, T/C",compound 0.1 µM,96.9% [middle of 12 runs]
same,"viability, T/C",compound 3.16 µM,99.2% [middle of 12 runs]
same,pIC50,"compound alone, run of 04/22/2024",< 5.00
COc1ncnc(C2CC2)c1-c1ncc2cnn(Cc3ccc(-c4nc(C(F)(F)F)cn4C(C)C)cc3)c2n1,"viability, T/C",compound 0.0316 µM,101% and 109% and 104%
same,"viability, T/C",compound 0.1 µM,102% and 106% and 78.5%
same,"viability, T/C",compound 0.316 µM,102% and 82.9% and 81.3%
same,"viability, T/C",compound 1 µM,109% and 91.4% and 78.3%
same,"viability, T/C",compound 3.16 µM,106% and 86.4% and 75.8%
same,pIC50,curve of compound,< 5.00 and 5.28
Cc1cnc(CNC(=O)c2c(=O)c3ccc(N4CCCN(C)CC4)nc3n3c2sc2ccccc23)cn1,"viability, T/C",compound 1 µM,64.5% [middle of 12 runs]
same,"viability, T/C",compound 3.16 µM,57.2% [middle of 12 runs]
same,"viability, T/C",compound 10 µM,55.2% [middle of 12 runs]
O=C(NO)c1cnc(N2CCN(S(=O)(=O)c3ccc4ccccc4c3)CC2)nc1,"viability, T/C",compound 0.0316 µM,58.1% and 117% and 100%
same,"viability, T/C",compound 0.1 µM,20% and 107% and 82%
same,"viability, T/C",compound 0.316 µM,22.4% and 79.1% and 64.8%
same,"viability, T/C",compound 1 µM,21.8% and 2.34% and 0.84%
same,"viability, T/C",compound 3.16 µM,24.6% and 0.24% and 0.11%
same,"viability, T/C",compound 10 µM,25.1% and 0.26% and 0.18%
COc1cc(C2c3cc4c(cc3C(OC3OC5COC(C)OC5C(O)C3O)C3COC(=O)C23)OCO4)cc(OC)c1O (stereo not drawn) + CN(C)c1ccc(Nc2c3ccc(NC(=O)CCN4CCCC4)cc3nc3cc(NC(=O)CCN4CCCC4)ccc23)cc1,pIC50,"curve of first compound, second compound 0.0316 µM",< 5.00
same,pIC50,"curve of first compound, second compound 0.1 µM",< 5.00
same,pIC50,"curve of first compound, second compound 0.316 µM",< 5.00
same,pIC50,"curve of first compound, second compound 1 µM",< 5.00
same,pIC50,"curve of first compound, second compound 3.16 µM",< 5.00
same,pIC50,"curve of first compound, second compound 10 µM",< 5.00
same,"viability, T/C","second compound 0.0316 µM, first compound 0.0316 µM",94.2%
same,"viability, T/C","second compound 0.0316 µM, first compound 0.1 µM",94.2%
same,"viability, T/C","second compound 0.0316 µM, first compound 0.316 µM",86.6%
same,"viability, T/C","second compound 0.0316 µM, first compound 1 µM",117%
same,"viability, T/C","second compound 0.0316 µM, first compound 3.16 µM",86.7%
same,"viability, T/C","second compound 0.0316 µM, first compound 10 µM",68.2%
same,"viability, T/C","second compound 0.1 µM, first compound 0.0316 µM",105%
same,"viability, T/C","second compound 0.1 µM, first compound 0.1 µM",85.4%
same,"viability, T/C","second compound 0.1 µM, first compound 0.316 µM",101%
same,"viability, T/C","second compound 0.1 µM, first compound 1 µM",86%
same,"viability, T/C","second compound 0.1 µM, first compound 3.16 µM",75%
same,"viability, T/C","second compound 0.1 µM, first compound 10 µM",67.6%
same,"viability, T/C","second compound 0.316 µM, first compound 0.0316 µM",108%
same,"viability, T/C","second compound 0.316 µM, first compound 0.1 µM",93%
same,"viability, T/C","second compound 0.316 µM, first compound 0.316 µM",99%
same,"viability, T/C","second compound 0.316 µM, first compound 1 µM",95.6%
same,"viability, T/C","second compound 0.316 µM, first compound 3.16 µM",97.7%
same,"viability, T/C","second compound 0.316 µM, first compound 10 µM",66.4%
same,"viability, T/C","second compound 1 µM, first compound 0.0316 µM",97.4%
same,"viability, T/C","second compound 1 µM, first compound 0.1 µM",67.8%
same,"viability, T/C","second compound 1 µM, first compound 0.316 µM",114%
same,"viability, T/C","second compound 1 µM, first compound 1 µM",105%
same,"viability, T/C","second compound 1 µM, first compound 3.16 µM",89.2%
same,"viability, T/C","second compound 1 µM, first compound 10 µM",60.8%
same,"viability, T/C","second compound 3.16 µM, first compound 0.0316 µM",94.7%
same,"viability, T/C","second compound 3.16 µM, first compound 0.1 µM",90%
same,"viability, T/C","second compound 3.16 µM, first compound 0.316 µM",120%
same,"viability, T/C","second compound 3.16 µM, first compound 1 µM",106%
same,"viability, T/C","second compound 3.16 µM, first compound 3.16 µM",86%
same,"viability, T/C","second compound 3.16 µM, first compound 10 µM",66.8%
same,"viability, T/C","second compound 10 µM, first compound 0.0316 µM",90.3%
same,"viability, T/C","second compound 10 µM, first compound 0.1 µM",90.4%
same,"viability, T/C","second compound 10 µM, first compound 0.316 µM",105%
same,"viability, T/C","second compound 10 µM, first compound 1 µM",105%
same,"viability, T/C","second compound 10 µM, first compound 3.16 µM",90.4%
same,"viability, T/C","second compound 10 µM, first compound 10 µM",64.3%
